# Several values for one entry are separate records, joined by “and”; a condition that tells them apart may be missing. Equal values may be shown once. ± gives the expanded uncertainty stated by the source.
# Assays:
# [1] = 101 kPa, Liquid; for speed of sound: Sing-around technique in a fixed-path interferometer; for mass density: Vibrating tube method
# [2] = xn = mol fraction of the nth substance listed; conditions: 101 kPa, Liquid; for speed of sound: Sing-around technique in a fixed-path interferometer; for mass density: Vibrating tube method
SMILES,speed of sound ([1]; 298.15 K) [m/s],mass density ([1]; 298.15 K),speed of sound ([1]; 303.15 K),mass density ([1]; 303.15 K),speed of sound ([1]; 308.15 K) [m/s],mass density ([1]; 308.15 K),speed of sound ([1]; 313.15 K),mass density ([1]; 313.15 K),speed of sound ([1]; 318.15 K),mass density ([1]; 318.15 K),speed of sound ([1]; 323.15 K),mass density ([1]; 323.15 K),further results
"CCC(O)CO (stereo not drawn) [1,2-butanediol]",1452.6 ± 1.3,998.509 ± 0.23 kg/m3 and 998.492 ± 0.23 kg/m3,1438.2 ± 1.3 m/s and 1437.7 ± 1.3 m/s,994.744 ± 0.23 kg/m3 and 994.719 ± 0.23 kg/m3 and 994.759 ± 0.23 kg/m3,1423.6 ± 1.3,990.956 ± 0.23 kg/m3 and 990.971 ± 0.23 kg/m3,1409.2 ± 1.3 m/s and 1408.5 ± 1.3 m/s and 1409.1 ± 1.3 m/s,987.136 ± 0.23 kg/m3 and 987.113 ± 0.23 kg/m3 and 987.152 ± 0.23 kg/m3,1394.6 ± 1.2 m/s and 1394 ± 1.2 m/s and 1394.5 ± 1.2 m/s,983.284 ± 0.23 kg/m3 and 983.257 ± 0.23 kg/m3 and 983.297 ± 0.23 kg/m3,1380 ± 1.2 m/s and 1379.6 ± 1.2 m/s and 1379.9 ± 1.2 m/s,979.394 ± 0.23 kg/m3 and 979.371 ± 0.23 kg/m3 and 979.406 ± 0.23 kg/m3,
"CCC(O)CO (stereo not drawn) [1,2-butanediol] + CC(O)CCO",,,,,,,,,,,,,"speed of sound ([2]; 298.15 K, x1 = 1): 1452.6 ± 1.3 m/s; mass density ([2]; 298.15 K, x1 = 1): 998.509 ± 0.23 kg/m3; speed of sound ([2]; 303.15 K, x1 = 1): 1438.2 ± 1.3 m/s; mass density ([2]; 303.15 K, x1 = 1): 994.759 ± 0.23 kg/m3; speed of sound ([2]; 308.15 K, x1 = 1): 1423.6 ± 1.3 m/s; mass density ([2]; 308.15 K, x1 = 1): 990.971 ± 0.23 kg/m3; speed of sound ([2]; 313.15 K, x1 = 1): 1409.1 ± 1.3 m/s; mass density ([2]; 313.15 K, x1 = 1): 987.152 ± 0.23 kg/m3; speed of sound ([2]; 318.15 K, x1 = 1): 1394.5 ± 1.2 m/s; mass density ([2]; 318.15 K, x1 = 1): 983.297 ± 0.23 kg/m3; speed of sound ([2]; 323.15 K, x1 = 1): 1379.9 ± 1.2 m/s; mass density ([2]; 323.15 K, x1 = 1): 979.406 ± 0.23 kg/m3"
"CCC(O)CO (stereo not drawn) [1,2-butanediol] + OCCc1ccccc1",,,,,,,,,,,,,"speed of sound ([2]; 298.15 K, x2 = 0): 1452.6 ± 1.3 m/s; mass density ([2]; 298.15 K, x2 = 0): 998.509 ± 0.23 kg/m3; speed of sound ([2]; 303.15 K, x2 = 0): 1437.7 ± 1.3 m/s; mass density ([2]; 303.15 K, x2 = 0): 994.719 ± 0.23 kg/m3; speed of sound ([2]; 308.15 K, x2 = 0): 1423.6 ± 1.3 m/s; mass density ([2]; 308.15 K, x2 = 0): 990.971 ± 0.23 kg/m3; speed of sound ([2]; 313.15 K, x2 = 0): 1408.5 ± 1.3 m/s; mass density ([2]; 313.15 K, x2 = 0): 987.113 ± 0.23 kg/m3; speed of sound ([2]; 318.15 K, x2 = 0): 1394 ± 1.2 m/s; mass density ([2]; 318.15 K, x2 = 0): 983.257 ± 0.23 kg/m3; speed of sound ([2]; 323.15 K, x2 = 0): 1379.6 ± 1.2 m/s; mass density ([2]; 323.15 K, x2 = 0): 979.371 ± 0.23 kg/m3"
"CC(O)CCO (stereo not drawn) [1,3-butanediol]",1527.8 ± 2.1,1001.82 ± 0.84 kg/m3,1514.1 ± 2.1 m/s,998.418 ± 0.84 kg/m3,1500.2 ± 2.1,994.987 ± 0.83 kg/m3,1486.3 ± 2.1 m/s,991.528 ± 0.83 kg/m3,1472.3 ± 2.1 m/s,988.035 ± 0.82 kg/m3,1458.3 ± 2.1 m/s,984.506 ± 0.82 kg/m3,
OCc1ccccc1 [benzenemethanol] + CCC(O)CO,,,,,,,,,,,,,"speed of sound ([2]; 298.15 K, x1 = 1): 1525.2 ± 1.3 m/s; mass density ([2]; 298.15 K, x1 = 1): 1041.22 ± 0.26 kg/m3; speed of sound ([2]; 303.15 K, x1 = 1): 1509.3 ± 1.3 m/s; mass density ([2]; 303.15 K, x1 = 1): 1037.35 ± 0.26 kg/m3; speed of sound ([2]; 308.15 K, x1 = 1): 1493.6 ± 1.3 m/s; mass density ([2]; 308.15 K, x1 = 1): 1033.47 ± 0.26 kg/m3; speed of sound ([2]; 313.15 K, x1 = 1): 1478 ± 1.3 m/s; mass density ([2]; 313.15 K, x1 = 1): 1029.58 ± 0.26 kg/m3; speed of sound ([2]; 318.15 K, x1 = 1): 1462.6 ± 1.3 m/s; mass density ([2]; 318.15 K, x1 = 1): 1025.67 ± 0.25 kg/m3; speed of sound ([2]; 323.15 K, x1 = 1): 1447.3 ± 1.3 m/s; mass density ([2]; 323.15 K, x1 = 1): 1021.75 ± 0.25 kg/m3"
CCC(C)O (stereo not drawn) [butan-2-ol],1212.7 ± 1.2,803.103 ± 0.24 kg/m3,1194.5 ± 1.2 m/s,798.891 ± 0.24 kg/m3,1176.2 ± 1.2,794.588 ± 0.24 kg/m3,1157.9 ± 1.2 m/s,790.191 ± 0.24 kg/m3,1139.5 ± 1.2 m/s,785.692 ± 0.24 kg/m3,1121 ± 1.2 m/s,781.09 ± 0.24 kg/m3,
CCC(C)O (stereo not drawn) [butan-2-ol] + CCC(O)CO,,,,,,,,,,,,,"speed of sound ([2]; 298.15 K, x2 = 0): 1212.7 ± 1.2 m/s; mass density ([2]; 298.15 K, x2 = 0): 803.103 ± 0.24 kg/m3; speed of sound ([2]; 303.15 K, x2 = 0): 1194.5 ± 1.2 m/s; mass density ([2]; 303.15 K, x2 = 0): 798.891 ± 0.24 kg/m3; speed of sound ([2]; 308.15 K, x2 = 0): 1176.2 ± 1.2 m/s; mass density ([2]; 308.15 K, x2 = 0): 794.588 ± 0.24 kg/m3; speed of sound ([2]; 313.15 K, x2 = 0): 1157.9 ± 1.2 m/s; mass density ([2]; 313.15 K, x2 = 0): 790.191 ± 0.24 kg/m3; speed of sound ([2]; 318.15 K, x2 = 0): 1139.5 ± 1.2 m/s; mass density ([2]; 318.15 K, x2 = 0): 785.692 ± 0.24 kg/m3; speed of sound ([2]; 323.15 K, x2 = 0): 1121 ± 1.2 m/s; mass density ([2]; 323.15 K, x2 = 0): 781.09 ± 0.24 kg/m3"

# Continued, in another order:
speed of sound ([1]; 298.15 K) [m/s],mass density ([1]; 298.15 K),speed of sound ([1]; 303.15 K),mass density ([1]; 303.15 K),speed of sound ([1]; 308.15 K) [m/s],mass density ([1]; 308.15 K),speed of sound ([1]; 313.15 K),mass density ([1]; 313.15 K),speed of sound ([1]; 318.15 K),mass density ([1]; 318.15 K),speed of sound ([1]; 323.15 K),mass density ([1]; 323.15 K),SMILES,further results
1526.1 ± 1.3,1016.14 ± 0.24 kg/m3,1510.5 ± 1.3 m/s,1012.39 ± 0.24 kg/m3,1494.7 ± 1.3,1008.61 ± 0.24 kg/m3,1479.2 ± 1.3 m/s,1004.75 ± 0.23 kg/m3,1463.2 ± 1.3 m/s,1000.93 ± 0.23 kg/m3,1447.7 ± 1.3 m/s,997.075 ± 0.23 kg/m3,OCCc1ccccc1 [2-phenylethanol],
1525.2 ± 1.3,1041.22 ± 0.26 kg/m3,1509.3 ± 1.3 m/s,1037.35 ± 0.26 kg/m3,1493.6 ± 1.3,1033.47 ± 0.26 kg/m3,1478 ± 1.3 m/s,1029.58 ± 0.26 kg/m3,1462.6 ± 1.3 m/s,1025.67 ± 0.25 kg/m3,1447.3 ± 1.3 m/s,1021.75 ± 0.25 kg/m3,OCc1ccccc1 [benzenemethanol],

# — the NIST ThermoML archive (doi:10.1021/je5009334)
